US8548745B2, “Visual-servoing optical microscopy” (The Regents of the University of California, priority 2000, dated 2013)

Key:
[1] = test system: MCF-7 ADR (MDR) cells; test: VSOM MDR assay (MDR Assay Beta-Test kit), calcein accumulation, run 2; settings: for calcein accumulation in selected single cells on exposure to modulator: two of four selected single cell response curves, run 2, CAM+V (syringe #5) or CAM+MK
Protocol: Both runs used the pump schedule. […] The red line in each case represents the average of all the cell responses in the entire field of view.
The MDR Assay β-Test kit was also tested in a VSOM experiment, as described herein. […] Pumps are turned on and off at specified flow rates according to a pre-programmed recipe, or based on real-time analysis of individual cell responses. The CAM, V, and MK concentrations used are noted in the figure. The three exposures to CAM were 900 seconds (20 min) each, and thus the total exposure to CAM was 60 min. The black windows at the bottom of the Figure show the mean response of all cells in the field of view.
The plot and images were continuously refreshed and updated during the experiment. […] However, the mean cellular fluorescence of each cell was monitored during VSOM experiments, and making deviations from the mean easily detectable. […] Such cells are unable to retain calcein, and it leaks out, causing the fluorescence signal to drop.

[2] = test system: MCF-7 WTC (DS) cells; test: VSOM MDR assay (MDR Assay Beta-Test kit), calcein accumulation, run 1; format: cell-based, human; settings: run 1, N=336, three CAM exposures
From the text: Both runs used the pump schedule.

[3] = test system: DoHH2 lymphoma; settings: full phosphorothioate 18-mer; severe immunodeficient mice (Raynaud et al.); cited from earlier work
[4] = test system: mRNA translation; settings: cell-free system (Mologni et al.); only when both PNA-ODNs are simultaneously present; cited from earlier work
[5] = test system: MCF-7 WTC cells; test: ADR visual servoing experiment, CAM perfusion until average MI threshold; format: cell-based, human; settings: 1 μM CAM in DBPSGP perfused at 0.5 mL/min
Protocol: MCF-7 WTC cells were grown in 35 mm cell culture dishes, and were pre-stained with H42. After an approximately 1 hr pre-incubation with H42, cells were rinsed with DPBSGP and were placed in the warm microscope chamber. The ADR program successfully operated in the following fashion. Three digital images (360 nm excitation, 490 nm excitation, and transmitted light, brightfield) were acquired at regular specified intervals through this experiment and all the H42 stained nuclei were detected and segmented before the next image interval. The nuclear contours for each nucleus that were delineated in the blue channel were used to calculate a mean cellular fluorescence intensity value from the green channel (MI). An initial perfusion of DBPSGP solution only (syringe #1) was performed at 1.0 mL/min for 8.3 minutes, (as specified by the user), and then syringe #1 was stopped. Next, a perfusion of DBPSGP solution containing 1 μM CAM (syringe #2) was begun at 0.5 mL/min. When the average MI of all the cells reached a specified threshold, syringe #2 was stopped via successful visual servoing. It took 13.9 minutes for the cells to accumulate sufficient CAM, and for the system to detect sufficient intracellular CAM (in the nuclear region), before the system successfully stopped syringe #2, and restarted syringe #1. After 11.4 min (as specified) the system stopped syringe #1 again. […]

CN(C)C(=O)CCSC(SCCC(=O)O)c1cccc(/C=C/c2ccc3ccc(Cl)cc3n2)c1 (centres unmarked) [MK-571]
calcein accumulation in selected single cells on exposure to modulator [1]: not inhibited

O=C(O)CN(CC(=O)O)Cc1cc2c(cc1O)Oc1cc(O)c(CN(CC(=O)O)CC(=O)O)cc1C21OC(=O)c2ccccc21 [calcein]
calcein accumulation (mean cellular fluorescence, mean of all cells in field) [2]: 240±82 | calcein accumulation (mean cellular fluorescence, mean of all cells in field) ([1]; MDR cells, run 2, N=161, three CAM exposures): 103±80

COc1ccc(CCN(C)CCCC(C#N)(c2ccc(OC)c(OC)c2)C(C)C)cc1OC (centres unmarked) [verapamil]
calcein accumulation in selected single cells on exposure to modulator [1]: do not accumulate calcein until verapamil (V) exposure

SEQ ID NO:1: 18-mer TCTC CCAG CGTG CGCC AT, anti-sense to the first six codons of the open reading frame of bcl-2 (antisense TCTCCCAGCGTGCGCCAT; chemistry not given here; listed as Homo sapiens)
efficacy against DoHH2 lymphoma [3]: has shown efficacy

SEQ ID NO:2: 15-mer peptide nucleic acid oligodeoxyribonucleotide CCCC AGCC CCTA CCC (CCCCAGCCCCTACCC; all peptide nucleic acid (PNA); further chemistry not fully specified; listed as Homo sapiens)
block of mRNA translation [4]: complete block

SEQ ID NO:3: 15-mer peptide nucleic acid oligodeoxyribonucleotide AGCG TGCG CCAT CCC (AGCGTGCGCCATCCC; all peptide nucleic acid (PNA); further chemistry not fully specified; listed as Homo sapiens)
block of mRNA translation [4]: complete block

calcein-AM [CAM]
time for cells to accumulate sufficient CAM to reach the specified average MI threshold [5]: 13.9 min
